Assays:
[1] = tested on: R2 (MTXRIIOuaR2-4) RFC-, PCFT-, and FRα-null CHO cells; assay: Cell proliferation assay, transporter-null R2 CHO subline; assay type: cell-based, Chinese hamster; settings: Cricetulus griseus, transporter-null control cells, 96 h, up to 1000 nM, mean (standard error)
Source text: (§1) We used a unique panel of engineered Chinese hamster ovary (CHO) sublines derived from a transporter-null MTXRIIOua^R2-4 CHO subline (R2) and designed to individually express human FRα (RT16), FRβ (D4), RFC (PC43-10), or PCFT (R2/PCFT).[39]−[42] As the CHO sublines are isogenic and differ only in the presence or absence of the human folate transporters, differences in the extent of inhibition of cell proliferation between the cell lines upon treatment with the various compounds provide a robust readout of transport specificities.[25],[26],[29],[30],[43]
(§2) The CHO sublines were treated for 96 h with a range of drug concentrations up to 1000 nM; cell viabilities were measured with a fluorescence assay.[26] […] As a control, we used transporter-null R2 cells.[42] To extend studies to human tumor cells, we also performed experiments in RFC-, PCFT-, and FRα-expressing KB tumor cells.[44] To confirm the contribution of FR-mediated uptake to antitumor activity, for KB cells, we added 200 nM folic acid, which inhibits FR uptake by direct competition without effects on either RFC or PCFT.[25],[26],[28]−[30],[43]
(§3) The MTXRIIOua^R2-4 RFC-, PCFT-, and FRα-null Chinese hamster ovary (CHO) cell line (R2) was a gift from Dr. Wayne Flintoff (University of Western Ontario).[40],[42] Isogenic CHO cell lines were subsequently derived from R2 cells by transfection with RFC, PCFT, or FRα cDNAs to generate PC43-10 (expresses only human RFC), R2/PCFT4 (expresses only human PCFT), RT16 (expresses only human FRα), and D4 (expresses only human FRβ).[25],[26],[39]
(§4) The CHO sublines were cultured in α-minimal essential medium (α-MEM) supplemented with 100 U/mL penicillin/100 μg/mL streptomycin, 2 mM L-glutamine, and 10% bovine calf serum (Sigma-Aldrich). For the PC43-10, R2/PCFT4, RT16, and D4 sublines, 1.5 mg/mL G418 was also added. Seventy-two hours prior to in vitro proliferation assays (below), RT16 and D4 CHO cells were grown in folate-free RPMI with dialyzed fetal bovine serum (DFBS) (Invitrogen) supplemented with 100 U/mL penicillin/[…] streptomycin and 2 mM L-glutamine. FRα-expressing KB nasopharyngeal carcinoma cells were acquired from the American Type Culture Collection (Manassas, VA); cells were grown in complete folate-free RPMI 1640 supplemented with 10% fetal bovine serum, 100 U/mL penicillin/100 μg/mL streptomycin, and 2 mM L-glutamine. Cell lines were authenticated by STR analysis (Genetica DNA Laboratories, Burlington, NC) and tested for Mycoplasma by PCR (Venor GeM Mycoplasma Detection Kit, Sigma). Frozen stocks were generated from authenticated Mycoplasma-free cultures.
(§5) Cell proliferation assays used CHO and KB cells cultured in folate-free-RPMI 1640 media with 10% DFBS, 2 mM L-glutamine, and 100 U/mL penicillin/100 μg/mL streptomycin supplemented with 2 nM (KB, RT16, D4) or 25 nM (R2, PC43-10, R2/PCFT4) leucovorin.[25],[26],[30] Parallel incubations with 200 nM folic acid were performed in viability assays to confirm FR-mediated drug uptake. Cells were plated in 96-well dishes at 2500–5000 cells/well in 200 μL media and treated with a range of C1 inhibitors spanning 0 to 1 μM. Cells were treated at 37 ° C with 5% CO2, and numbers were assayed after 96 h using CellTiter-blue (Promega, Madison, WI) and a fluorescence plate reader.[25],[26]

[2] = tested on: R2/PCFT4 CHO cells (expresses only human PCFT); assay: Cell proliferation assay, R2/PCFT4 CHO subline; assay type: cell-based, Chinese hamster; settings: 96 h, 25 nM leucovorin, mean (standard error)
Source text: as §1, §2, §3, §4, §5

| SMILES | IC50 [1] [nM] | IC50 [2] [nM] | melting point [°C] |
| --- | --- | --- | --- |
| Nc1nc2sc(CCCCc3cccc(C(=O)N[C@@H](CCC(=O)O)C(=O)O)n3)cc2c(=O)[nH]1 [Compound 3, (6-(4-(2-Amino-4-oxo-3,4-dihydrothieno[2,3-d]pyrimidin-6-yl)butyl)picolinoyl)-L-glutamic Acid] | > 1000 | > 1000 | 125.8 to 126.2 |
| Nc1nc2sc(CCCCc3ccc(C(=O)N[C@@H](CCC(=O)O)C(=O)O)nc3)cc2c(=O)[nH]1 [Compound 4, (5-(4-(2-Amino-4-oxo-3,4-dihydrothieno[2,3-d]pyrimidin-6-yl)butyl)picolinoyl)-L-glutamic Acid] | > 1000 | 318 |  |
| Nc1nc2sc(CCCCc3cnc(C(=O)N[C@@H](CCC(=O)O)C(=O)O)c(F)c3)cc2c(=O)[nH]1 [Compound 5, (5-(4-(2-Amino-4-oxo-3,4-dihydrothieno[2,3-d]pyrimidin-6-yl)butyl)-3-fluoropicolinoyl)-L-glutamic Acid] | > 1000 | 344 | 128 to 129.7 |
| Nc1nc2sc(CCCc3ccc(C(=O)N[C@@H](CCC(=O)O)C(=O)O)c(F)c3)cc2c(=O)[nH]1 [Compound 6, (4-(3-(2-Amino-4-oxo-3,4-dihydrothieno[2,3-d]pyrimidin-6-yl)propyl)-2-fluorobenzoyl)-L-glutamic Acid] | > 1000 | 591 | 128 to 129.8 |
| Nc1nc2sc(CCCCc3ccc(C(=O)N[C@@H](CCC(=O)O)C(=O)O)c(F)c3)cc2c(=O)[nH]1 [Compound 7, (4-(4-(2-Amino-4-oxo-3,4-dihydrothieno[2,3-d]pyrimidin-6-yl)butyl)-2-fluorobenzoyl)-L-glutamic Acid] | > 1000 | > 1000 | 121.7 to 122.6 |
| Nc1nc2sc(CCCc3csc(C(=O)N[C@@H](CCC(=O)O)C(=O)O)c3F)cc2c(=O)[nH]1 [Compound 8, (4-(3-(2-Amino-4-oxo-3,4-dihydrothieno[2,3-d]pyrimidin-6-yl)propyl)-3-fluorothiophene-2-carbonyl)-L-glutamic Acid] | > 1000 | > 1000 |  |
| Nc1nc2sc(CCCCc3csc(C(=O)N[C@@H](CCC(=O)O)C(=O)O)c3F)cc2c(=O)[nH]1 [Compound 9, (4-(4-(2-Amino-4-oxo-3,4-dihydrothieno[2,3-d]pyrimidin-6-yl)butyl)-3-fluorothiophene-2-carbonyl)-L-glutamic Acid] | > 1000 | 167 | 142.3 to 143.5 |

— publication PMC10186366 (ACS Pharmacology & Translational Science, 2023)
